Patent US7649089B2, “Biodegradable oxidized cellulose esters and their uses as microspheres” (University of Iowa Research Foundation, priority 2001, dated 2010)
≈ marks a conversion by molar mass, not a printed value.

How the values were obtained:
[1] = Solubility of 5-fluorouracil in pH 7.4 phosphate buffer saline; format: physicochemical; conditions: aqueous buffer, pH 7.4 PBS, read-out: solubility in pH 7.4 phosphate buffer saline solution
[2] = Release studies of CPT microspheres in pH 7.4 PBS at 37 C, sink condition; format: physicochemical; conditions: free drug
Description: OCA was prepared from oxidized (OC, COOH content 14% w/w) by treatment with a mixture of Ac2O/HOAC/H2SO4. The preparation of OCAM was achieved from a reaction between OCA and methanol using dicyclohexylcarbodiimide and 4,4′-dimethylaminopyridine as the catalysts. OCA and OCAM microspheres containing CPT were prepared by the emulsion/solvent evaporation method using the CH2Cl2—CH3OH mixture as a solvent and polyvinyl alcohol as an emulsifier. Microspheres were characterized by IR, scanning electron and confocal microscopes, and powder X-ray diffractometry. Dissolution studies were performed in pH 7.4 phosphate buffer-saline (PBS) at 37° C.
The release studies were performed under the sink condition in pH 7.4 PBS buffer at 37.0±0.2° C. At predetermined time intervals, 5.0 ml of the release medium was withdrawn. This was immediately replaced with an equal volume of the fresh PBS solution. The removed release medium was appropriated diluted with the mobile phase and analyzed by HPLC.

solubility [1] [mg/mL]	Structure (SMILES)	time to dissolve [2]
14.9 (≈ 114 mM)	O=c1[nH]cc(F)c(=O)[nH]1 [5-fluorouracil]	
	CC[C@@]1(O)C(=O)OCc2c1cc1n(c2=O)Cc2cc3ccccc3nc2-1 [free CPT, camptothecin]	about 48 hours
